Results taken from patent US7968526B2, “Antisense oligonucleotides directed to ribonucleotide reductase R2 and uses thereof in the treatment of cancer” (Lorus Therapeutics Inc., priority 2003, dated 2011).
Entries after “also recorded” stand apart in the source; their conditions may differ.

Legend:
[1] = test system: SK-OV-3 human ovarian cancer cells; assay: SK-OV-3 ovary tumour growth in Balb/c nude mice (3.4); format: in vivo, human cells in mice
Procedure: Treatments lasted for 14 days thereafter. Antitumour activities were estimated by the inhibition of tumour volume, which was measured with a caliper on four different occasions over the treatment period. Each point represents mean tumour volume calculated from 5 animals per experimental group. […] Control animals (control) received saline alone for the same period. At the end of the treatments, the animals were sacrificed, tumours were excised and their weights were measured. Each bar represents mean tumour weight calculated from 6 animals per experimental group. […] Treatments lasted for 24 days thereafter. Antitumour activities were estimated by the inhibition of tumour volume, which was measured with a caliper at two-day intervals over the treatment period. Each point represents mean tumour volume calculated from 4 animals per experimental group. […] Treatments lasted for 24 days thereafter. Antitumour activities were estimated by the inhibition of tumour volume, which was measured with a caliper at two-day intervals over the treatment period. Each point represents mean tumour volume calculated from 4 animals per experimental group. […] Each point represents mean tumour volume calculated from 5 animals per experimental group. […] Antitumour activities were estimated by the inhibition of tumour volume, which was measured with a caliper on four different occasions over 16-day period. Each point represents mean tumour volume calculated from 5 animals per experimental group. […] Antitumour activities were estimated by the inhibition of tumour volume, which was measured with a caliper at two-day intervals over the treatment period. Each point represents mean tumour volume calculated from 5 animals per experimental group. […] Antitumour activities were estimated by the inhibition of tumour volume, which was measured with a caliper at various time intervals over the span of 30 days. Each point represents mean tumour volume calculated from 6 animals per experimental group. […] Antitumour activities were estimated by the inhibition of tumour volume, which was measured with a caliper. […]

[2] = test system: HT-29 human colon cancer cells; assay: HT-29 colon tumour growth in CD-1 nude mice, SEQ ID NO:1 alone (3.1); format: in vivo, human cells in mice
Procedure: Treatments lasted for 14 days thereafter. Antitumour activities were estimated by the inhibition of tumour volume, which was measured with a caliper on four different occasions over the treatment period. Each point represents mean tumour volume calculated from 5 animals per experimental group. […] Control animals (control) received saline alone for the same period. At the end of the treatments, the animals were sacrificed, tumours were excised and their weights were measured. Each bar represents mean tumour weight calculated from 6 animals per experimental group. […] Treatments lasted for 24 days thereafter. Antitumour activities were estimated by the inhibition of tumour volume, which was measured with a caliper at two-day intervals over the treatment period. Each point represents mean tumour volume calculated from 4 animals per experimental group. […] Treatments lasted for 24 days thereafter. Antitumour activities were estimated by the inhibition of tumour volume, which was measured with a caliper at two-day intervals over the treatment period. Each point represents mean tumour volume calculated from 4 animals per experimental group. […] Treatments lasted for 22 days thereafter. […] Each point represents mean tumour volume calculated from 5 animals per experimental group. […] Treatments lasted for 14 days thereafter. Antitumour activities were estimated by the inhibition of tumour volume, which was measured with a caliper on four different occasions over 16-day period. Each point represents mean tumour volume calculated from 5 animals per experimental group. […] Two different batches of SEQ ID NO:1, synthesized at different times (designated as batch 1 and batch 2), were tested to detect possible batch-specific effects. […] Treatments lasted for 34 days thereafter. Antitumour activities were estimated by the inhibition of tumour volume, which was measured with a caliper at two-day intervals over the treatment period. Each point represents mean tumour volume calculated from 5 animals per experimental group. […] Treatments lasted for 30 days thereafter. Antitumour activities were estimated by the inhibition of tumour volume, which was measured with a caliper at various time intervals over the span of 30 days. Each point represents mean tumour volume calculated from 6 animals per experimental group. […] All treatments were stopped at day 36. Antitumour activities were estimated by the inhibition of tumour volume, which was measured with a caliper. Each point represents mean tumour volume calculated from 5 animals per experimental group. […] All treatments were stopped at day 52. Mice treated with saline or one of the three chemotherapeutic agents were sacrificed at day 80 because the tumour became too large. Mice treated with SEQ ID NO:1 were kept for 16 days further to observe possible resurgence of resistant tumour growth. Antitumour activities were estimated by the inhibition of tumour volume, which was measured with a caliper.

[3] = Pharmacokinetics in the rat (plasma, CE method); format: in vivo
Procedure: The toxicokinetics and tissue distribution of SEQ ID NO:1 (and related oligonucleotide metabolites obtained from exonuclease-mediated chain shortening) were determined in rats and monkeys. In addition to investigating the pharmacokinetics and tissue distribution of SEQ ID NO:1, the purpose of the studies was to correlate adverse effects in the animal studies to the concentrations of SEQ ID NO:1 (and metabolites) in tissue and blood. A capillary electrophoresis (CE) method was used to measure the concentrations of SEQ ID NO:1 (and metabolites) in plasma and tissues.
In a pharmacokinetic study, groups of male rats were administered one or two bolus i.v. injections (tail vein) of SEQ ID NO:1 at a dose of 50 mg/kg (295 mg/m^2) and intravenously infused (abdominal vena cava) for up to 48 h at a dose of 50 mg/kg/day (295 mg/m^2/day). Blood samples were collected into EDTA-containing tubes from subsets of animals in each group at various sampling times up to 56 h after initiation of infusion or bolus injection. Parent SEQ ID NO:1 concentrations were measured in plasma by a validated CE method.

[4] = test system: Caki renal tumour xenografts; assay: Caki renal tumour xenografts in SCID/beige mice (immune stimulation); format: in vivo, human cells in mice; conditions: Caki renal tumour xenografts in SCID/beige mice (lack B, T and NK cell function)
Procedure: To directly determine whether SEQ ID NO:1 treatment results in CpG stimulation of NK-mediated anti-tumour activity, the efficacy of SEQ ID NO:1 on human tumour xenografts in SCID/beige mice was assessed (FIG. 32). SCID/beige mice lack B, T and NK cell function and as such these mice cannot mount a significant innate or acquired immune response.

[5] = test system: Caki-1 human renal cancer cells; assay: Caki-1 renal tumour xenograft, combination with 5-FU or vinblastin (1.3); format: in vivo, human cells in mice
From the text: All treatments were stopped at day 22. […] All treatments were stopped at day 32. […] All treatments were stopped at day 36.

[6] = 50 mg/kg/day continuous intravenous infusion

## 5′-GGCTAAATCGCTCCACCAAG-3′ (all phosphorothioate, sugars by position and methylation of C not given here) [SEQ ID NO: 1, fully phosphorothioated antisense oligonucleotide that hybridizes to the coding region of R2 mRNA]
[1]; Human Ovary Adenocarcinoma
  Inhibition of tumour weight: tumour weight of approximately 50%
[1]; Human Ovary Adenocarcinoma in Balb/c Nu-Nu mice, Days 19 to 25 after tumour implantation
  Inhibition of tumour size: Inhibition of tumour size by approximately 35%
[1]; SK-OV-3, Balb/c nude mice, 10 mg/kg i.v. every other day, 22 days
  Inhibitory effect on tumour growth (tumour volume, FIG. 18C): statistically significant inhibitory effects on the growth of human ovary adenocarcinoma cells
[2]; HT-29, CD-1 nude mice, 10 mg/kg i.v. every other day, 14 days
  Inhibitory effect on tumour growth (tumour volume, FIG. 17A): statistically significant inhibitory effects
[2]; HT-29, CD-1 nude mice, 0.4-6.0 mg/kg i.v. every other day for 14 days
  Inhibitory effect on tumour growth (tumour weight, FIG. 17B): statistically significant inhibitory effects on the growth of human colon adenocarcinoma in a dose-dependent manner
[2]; Human Colon Adenocarcinoma
  Inhibition of tumour weight: ~80%
[2]; Human Colon Adenocarcinoma in CD-1 nude mice, Day 18 after tumour implantation
  Inhibition of tumour size: approximately 80% on Day 18 after tumour
[2]; in vivo
  Dose dependence of tumour weight: Dose-dependent decrease in tumour weight in
[3]; [6]
  AUC(0-24): 208 µg·h/mL
  Cl (plasma clearance): 0.216 L/h/kg
  Css (mean plasma steady state concentration): 9.62 µg/mL
  Time after infusion initiation at which steady state level was achieved: approximately 3 hr
[3]; 50 mg/kg/day i.v. bolus
  AUC(0-24): 369 µg·h/mL
  AUC(0-inf): 650 µg·h/mL
  AUC(0-t): 637 µg·h/mL
  Cl (plasma clearance): 0.154 L/h/kg
  Kel: 0.5109 h⁻¹
  T1/2 (plasma half-life): 81.6 min
  Tmax: 4.98 min
[3]; 50 mg/kg/day i.v. bolus, after second bolus injection
  Cmax: 679 µg/mL
[4]
  Anti-tumour effect (FIG. 32): effectively treated; also recorded: equivalent in extent and kinetics to that obtained in the SCID mouse model; also recorded: anti-tumour activity is specific to the R2 complementary sequence
[5]; Caki (renal), CD-1 mouse as printed, SEQ ID NO:1 10 mg/kg i.v. every other day, 5-FU 13 mg/kg/day i.p., vinblastin 0.6 mg/kg/week i.p.
  Tumour weight as % of saline control: 3.3%
[5]; Caki-1, SCID mice, SEQ ID NO:1 10 mg/kg i.v. every other day, 5-FU 13 mg/kg/day i.p., vinblastin 0.6 mg/kg/week i.p.
  Antitumour effect (tumour weight, FIG. 3A): significant delay of tumour growth compared to saline control; also recorded: superior to the inhibitory effects observed with each of two chemotherapeutic compounds
[5]; Human Renal Carcinoma^2 (second entry of Table 5)
  Inhibition of tumour size: Approximately 97% inhibition of tumour size
